From patent US12612424B2, “HPK1 inhibitors and uses thereof” (Regor Pharmaceuticals, Inc., priority 2019, dated 2026)
Where two headings read alike, the source gives them in different places.

Experiments:
HPK1 = HPK1 (Homo sapiens, UniProt Q92918); assay: HPK1 biochemical assay (ADP-GLO Kinase Assay)
Summary of the method: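 HPK1 (0.6 ng/μL final) activity was followed with MBP substrate and 10 μM ATP in Tris pH 7.5/MgCl2/BSA/DTT buffer, measured by ADP-Glo luminescence. Compounds were tested as 3-fold dilutions from 10 μM. IC50 came from a three-parameter logistic fit, with inhibition normalised to high/low controls.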

JAK3 = target: T1, JAK3 (Homo sapiens, UniProt P52333); assay: JAK3 biochemical assay (ADP-GLO Kinase Assay); conditions: for JAKs/HPK1 IC50 Ratio, B* / JAKs/HPK1 IC50 Ratio, N*: ratio of JAK3 IC50 to HPK1 IC50; for JAKs/HPK1 IC50 Ratio, B*: first testing facility; for JAKs/HPK1 IC50 Ratio, N*: second testing facility
T1 construct: purchased Thermo fisher PV3855
Summary of the method: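 Luminescent ADP-Glo readout after a 60 min, 25 °C reaction of JAK3 (0.78 ng) on Poly(E4Y1) (0.2 μg/μL) at 4 μM ATP, Tris pH 7.5 buffer with MgCl2, BSA and DTT. Compounds tested 10 μM down to 0.508 nM in 3-fold steps; % inhibition normalised to DMSO and reference-compound controls, IC50 from three-parameter fit.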

[1] = B*: testing performed in a first testing facility, read-out: HPK1 IC50 (nM) Relative, B*
[2] = B*: testing performed in a first testing facility, read-out: JAK3 IC50 (nM) Relative, B*
[3] = N*: testing performed in a second testing facility, read-out: HPK1 IC50 (nM) Relative, N*
[4] = N*: testing performed in a second testing facility, read-out: JAK3 IC50 (nM) Relative, N*

Sequence of HPK1 (Q92918 whole entry): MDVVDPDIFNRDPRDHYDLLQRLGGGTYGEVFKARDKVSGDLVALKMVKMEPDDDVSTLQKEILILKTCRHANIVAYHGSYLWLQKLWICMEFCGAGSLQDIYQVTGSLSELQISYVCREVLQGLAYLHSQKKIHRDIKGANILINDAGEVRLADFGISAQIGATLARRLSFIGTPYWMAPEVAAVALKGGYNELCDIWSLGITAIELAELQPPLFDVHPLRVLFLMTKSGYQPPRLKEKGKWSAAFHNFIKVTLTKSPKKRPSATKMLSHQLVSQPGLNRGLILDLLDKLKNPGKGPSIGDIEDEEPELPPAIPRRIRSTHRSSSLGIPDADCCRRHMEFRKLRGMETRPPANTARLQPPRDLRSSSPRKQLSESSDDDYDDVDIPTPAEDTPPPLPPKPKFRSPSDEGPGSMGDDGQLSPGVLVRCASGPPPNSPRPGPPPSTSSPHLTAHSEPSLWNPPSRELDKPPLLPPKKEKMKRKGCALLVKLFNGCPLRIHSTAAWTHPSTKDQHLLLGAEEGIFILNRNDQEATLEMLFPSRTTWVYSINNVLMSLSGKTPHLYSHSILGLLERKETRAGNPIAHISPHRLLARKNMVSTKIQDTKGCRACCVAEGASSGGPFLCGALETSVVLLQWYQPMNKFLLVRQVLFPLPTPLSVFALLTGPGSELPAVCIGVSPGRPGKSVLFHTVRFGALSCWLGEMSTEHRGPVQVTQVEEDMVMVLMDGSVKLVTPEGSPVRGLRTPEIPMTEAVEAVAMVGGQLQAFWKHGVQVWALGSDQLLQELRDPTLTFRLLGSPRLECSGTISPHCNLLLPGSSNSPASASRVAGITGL
T1 sequence (P52333 781-1124 limits assumed): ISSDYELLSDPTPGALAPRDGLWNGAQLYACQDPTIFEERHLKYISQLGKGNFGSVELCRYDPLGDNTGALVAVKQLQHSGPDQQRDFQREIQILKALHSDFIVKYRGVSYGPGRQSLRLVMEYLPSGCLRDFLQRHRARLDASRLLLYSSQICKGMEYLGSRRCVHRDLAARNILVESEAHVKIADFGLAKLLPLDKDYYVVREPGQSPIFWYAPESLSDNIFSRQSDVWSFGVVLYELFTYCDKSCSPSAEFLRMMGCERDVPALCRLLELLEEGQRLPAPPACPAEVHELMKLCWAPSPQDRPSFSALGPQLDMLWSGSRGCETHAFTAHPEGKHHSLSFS

Compound	IC50 (HPK1; [1]) [nM]	IC50 (JAK3; [2]) [nM]	JAKs/HPK1 IC50 Ratio, B* (JAK3)	IC50 (HPK1; [3]) [nM]	IC50 (JAK3; [4]) [nM]	JAKs/HPK1 IC50 Ratio, N* (JAK3)
COc1cc2c(cc1Nc1ncc(Cl)c(N3CCc4cc(F)ccc43)n1)CN(C)CC2 [Example 20, N-(5-chloro-4-(5-fluoroindolin-1-yl)pyrimidin-2-yl)-6-methoxy-2-methyl-1,2,3,4-tetrahydroisoquinolin-7-amine]	≤ 100	100 to 500	88			
COc1cc2c(cc1Nc1ncc(Cl)c(-n3cc(P(C)(C)=O)c4ccccc43)n1)CN(C)CC2 [Example 1, (1-(5-Chloro-2-((6-methoxy-2-methyl-1,2,3,4-tetrahydroisoquinolin-7-yl)amino)pyrimidin-4-yl)-1H-indol-3-yl)dimethylphosphine oxide]	≤ 100	> 1000	285	≤ 100	> 1000	>558
COc1nc2c(cc1Nc1ncc(Cl)c(N3CCc4ccccc43)n1)CN(C)CC2 [Example 19, N-(5-chloro-4-(indolin-1-yl)pyrimidin-2-yl)-2-methoxy-6-methyl-5,6,7,8-tetrahydro-1,6-naphthyridin-3-amine]	≤ 100	500 to 1000		≤ 100	100 to 500	
COc1cc2c(cc1Nc1ncc(Cl)c(N3CC(C)(C)c4ccccc43)n1)CN(C)CC2 [Example 25, N-(5-Chloro-4-(3,3-dimethylindolin-1-yl)pyrimidin-2-yl)-6-methoxy-2-methyl-1,2,3,4-tetrahydroisoquinolin-7-amine]	≤ 100	100 to 500	218			
COc1cc2c(cc1Nc1ncc(Cl)c(N3CCc4ccccc43)n1)CN(C(C)C)CC2 [Example 22, N-(5-chloro-4-(indolin-1-yl)pyrimidin-2-yl)-2-isopropyl-6-methoxy-1,2,3,4-tetrahydroisoquinolin-7-amine]	≤ 100	> 1000	223			
COc1cc2c(cc1Nc1ncc(Cl)c(N3CC(C(=O)O)c4ccccc43)n1)CN(C)CC2 (stereo not drawn) [Example 32, 1-(5-Chloro-2-((6-methoxy-2-methyl-1,2,3,4-tetrahydroisoquinolin-7-yl)amino)pyrimidin-4-yl)indoline-3-carboxylic acid]	≤ 100	≤ 100	90			
COc1cc2c(cc1Nc1ncc(Cl)c(N3CCc4ccccc43)n1)CNCC2 [Example 23, N-(5-chloro-4-(indolin-1-yl)pyrimidin-2-yl)-6-methoxy-1,2,3,4-tetrahydroisoquinolin-7-amine]	≤ 100	100 to 500	59			
COc1cc2c(cc1Nc1ncc(Cl)c(-n3ncc4ccccc43)n1)CN(C)CC2 [Example 24, N-(5-Chloro-4-(1H-indazol-1-yl)pyrimidin-2-yl)-6-methoxy-2-methyl-1,2,3,4-tetrahydroisoquinolin-7-amine]	≤ 100	> 1000	79			
COc1nc2c(cc1Nc1ncc(Cl)c(N3CCc4ncccc43)n1)CN(C)CC2 [Example 29, N-(5-Chloro-4-(2,3-dihydro-1H-pyrrolo[3,2-b]pyridin-1-yl)pyrimidin-2-yl)-2-methoxy-6-methyl-5,6,7,8-tetrahydro-1,6-naphthyridin-3-amine]	≤ 100	500 to 1000	223	≤ 100	100 to 500	286
COc1cc2c(cc1Nc1ncc(Cl)c(N3CCc4ccc(F)cc43)n1)CN(C)CC2 [Example 21, N-(5-chloro-4-(6-fluoroindolin-1-yl)pyrimidin-2-yl)-6-methoxy-2-methyl-1,2,3,4-tetrahydroisoquinolin-7-amine]	≤ 100	> 1000	280			

Continued, values first:

IC50 (HPK1; [1]) [nM]	IC50 (JAK3; [2]) [nM]	JAKs/HPK1 IC50 Ratio, B* (JAK3)	IC50 (HPK1; [3]) [nM]	IC50 (JAK3; [4]) [nM]	JAKs/HPK1 IC50 Ratio, N* (JAK3)	Compound
≤ 100	100 to 500	78				COc1cc2c(cc1Nc1ncc(Cl)c(-n3cc(C(=O)O)c4ccccc43)n1)CN(C)CC2 [Example 35]
≤ 100	≤ 100	140				COc1cc2c(cc1Nc1ncc(Cl)c(N3CC(C(N)=O)c4ccccc43)n1)CN(C)CC2 (stereo not drawn) [Example 33, 1-(5-Chloro-2-((6-methoxy-2-methyl-1,2,3,4-tetrahydroisoquinolin-7-yl)amino)pyrimidin-4-yl)indoline-3-carboxamide]
≤ 100			≤ 100	> 1000	608	COc1cc2c(cc1Nc1ncc3ccn(-c4ccccn4)c3n1)CN(C)CC2 [Example 37, 6-Methoxy-2-methyl-N-(7-(pyridin-2-yl)-7H-pyrrolo[2,3-d]pyrimidin-2-yl)-1,2,3,4-tetrahydroisoquinolin-7-amine]
≤ 100	500 to 1000	101				COc1cc2c(cc1Nc1ncc(Cl)c(-n3cc(C(N)=O)c4ccccc43)n1)CN(C)CC2 [Example 34]
≤ 100			≤ 100	> 1000	287	COc1cc2c(cc1Nc1ncc3ccn(-c4ccccc4)c3n1)CN(C)CC2 [Example 36, 6-methoxy-2-methyl-N-(7-phenyl-7H-pyrrolo[2,3-d]pyrimidin-2-yl)-1,2,3,4-tetrahydroisoquinolin-7-amine]
